Laboratory results from patent US4797506A, “6-substituted prostaglandins E1 and process for producing same” (Teijin Limited, priority 1984, dated 1989).

Tests used:
[1] = system: ulcer formation induced by indomethacin; test: Inhibition of indomethacin-induced ulcer formation in rats (antiulcerative effect); format: in vivo, Wister male rats; settings: Rattus norvegicus, P.O., 30 minutes before oral indomethacin 20 mg/kg, ulcer length 5 hours after indomethacin
Procedure: (i) Determination of Antiulcerative Effect
The inhibiting effect on ulcer formation induced by indomethacin was examined by using rats. Wister male rats (7 weeks old, body weight 220 g) were abstained from food for 24 hours except giving water and then subjected to experiments.
The sample compounds to be tested were dissolved in a phosphoric acid buffer (pH 7.4) containing 0.9% NaCl and the solution was orally administered to the rats. 30 minutes after the administration, indomethacin was orally administered to the rats at a dose of 20 mg/kg. 5 hours after the administration of the indomethacin, the rats were killed and the ulcer formation in the stomach was examined by determining the length of the ulcer formation portion under a stereomicroscope. From this measurement, the inhibition of ulcer formation by the sample compounds was calculated to determine the ED50 values.

platelet aggregation [2] = test: In vitro platelet aggregation inhibition (ADP-induced, PRP); format: cell-based, Japanese white male domestic rabbits; settings: Oryctolagus cuniculus, rabbit PRP, 10 μM ADP, 37° C., sample in ethanol diluted with phosphoric acid buffer pH 7.4, left at 0° C. for 4 hours, lowest concentration at which the inhibition is 50%, read-out: Anti-platelet aggregation effect IC50
Procedure: (ii) In vitro PlateletAAggregation Inhibition Effect
The in vitro platelet aggregation inhibition effect of the sample compounds to be tested was examined by using rabbits. That is, blood was collected from the ear vein of native Japanese white male domestic rabbits weighing 2.5 to 3.5 kg. The collected blood was 9 parts by volume per 1 part by volume of a 3.8% sodium citrate solution. The blood was centrifuged at 100 r.p.m. for 10 minutes. The upper layer portion was separated as PRP (rich in platelet blood plasma). The lower layer portion was further centrifuged at 2800 r.p.m. for 10 minutes to divide it into two layers. The upper layer portion was separated as PPP (poor in platelet blood plasma). The member of the platelet was diluted with PPP to 6 to 7×10^' /μl. After the adjustment, 25 μl of the sample compound was added to 250 μl of PRP, which was preincubated at a temperature of 37° C. for 2 minutes. […]
When the activity of the sample compounds was determined, the ethanol solution was diluted with a phosphoric acid buffer (pH 7.4). The ethanol solution diluted with the buffer was left to stand at a temperature of 0° C. for 4 hours, after which the activity of the sample compounds was determined in the same manner.
The agglutination inhibition was calculated by the following formula: [formula] […]

platelet aggregation [3] = settings: compared with prostacyclin; cited from earlier work

| SMILES | ED50 [1] [mg/kg] | IC50 (platelet aggregation [2]) [µg/mL] | platelet aggregation inhibition effect (platelet aggregation [3]) |
| --- | --- | --- | --- |
| CCCCC(C)(O)C/C=C/[C@H]1[C@H](O)CC(=O)[C@@H]1CC(CCCCC(=O)OC)[N+](=O)[O-] (stereo partly drawn) | 0.022 | > 100 |  |
| CCCCC[C@H](O)/C=C/[C@H]1[C@H](O)CC(=O)[C@@H]1CC(=O)CCCCC(=O)O [6-oxoprostaglandin E1] |  |  | as strong as those of prostacyclin |
